Measured values published in patent US10975030B2, “Grp94 selective inhibitors and uses thereof” (University of Kansas, priority 2016, dated 2021).
Several values for one entry are separate records, joined by “and”; a condition that tells them apart may be missing. Equal entries are not always repeated.

Experiments:
Hsp90α = Hsp90α (Homo sapiens (Human), UniProt P07900); experiment: Fluorescence polarization (FP) assay, Hsp90α; assay type: binding
Procedure: (§1) Fluorescence Polarization. Assay buffer (25 μL, 20 mM HEPES pH 7.3, 50 mM KCl, 5 mM MgCl2, 1 mM DTT, 20 mM Na2MoO4, 0.01% NP-40, and 0.5 mg/mL BGG) was added to 96-well plate (black well, black bottom) followed by the desired compound at the indicated final concentrations in DMSO (1% DMSO final concentration). […] Plates were incubated with rocking for 5 h at 4° C. […] Percent FITC-GDA bound was determined by using the DMSO millipolarization unit (mP) as the 100% bound value and the 0% for FITC-GDA. Kd values were calculated from separate experiments performed in triplicate using GraphPad Prism.

[1] = molecular target: Grp94 (recombinant cGrp94) (Canis lupus familiaris (Dog) (Canis familiaris), UniProt P41148); experiment: Fluorescence polarization (FP) assay, cGrp94 with FITC-GDA; assay type: binding; details: apparent Kd, cGrp94 and FITC-GDA, triplicates, ± SEM, read-out: Kd Grp94
Procedure: as §1

Chain of Grp94 (recombinant cGrp94) (P41148 22-804): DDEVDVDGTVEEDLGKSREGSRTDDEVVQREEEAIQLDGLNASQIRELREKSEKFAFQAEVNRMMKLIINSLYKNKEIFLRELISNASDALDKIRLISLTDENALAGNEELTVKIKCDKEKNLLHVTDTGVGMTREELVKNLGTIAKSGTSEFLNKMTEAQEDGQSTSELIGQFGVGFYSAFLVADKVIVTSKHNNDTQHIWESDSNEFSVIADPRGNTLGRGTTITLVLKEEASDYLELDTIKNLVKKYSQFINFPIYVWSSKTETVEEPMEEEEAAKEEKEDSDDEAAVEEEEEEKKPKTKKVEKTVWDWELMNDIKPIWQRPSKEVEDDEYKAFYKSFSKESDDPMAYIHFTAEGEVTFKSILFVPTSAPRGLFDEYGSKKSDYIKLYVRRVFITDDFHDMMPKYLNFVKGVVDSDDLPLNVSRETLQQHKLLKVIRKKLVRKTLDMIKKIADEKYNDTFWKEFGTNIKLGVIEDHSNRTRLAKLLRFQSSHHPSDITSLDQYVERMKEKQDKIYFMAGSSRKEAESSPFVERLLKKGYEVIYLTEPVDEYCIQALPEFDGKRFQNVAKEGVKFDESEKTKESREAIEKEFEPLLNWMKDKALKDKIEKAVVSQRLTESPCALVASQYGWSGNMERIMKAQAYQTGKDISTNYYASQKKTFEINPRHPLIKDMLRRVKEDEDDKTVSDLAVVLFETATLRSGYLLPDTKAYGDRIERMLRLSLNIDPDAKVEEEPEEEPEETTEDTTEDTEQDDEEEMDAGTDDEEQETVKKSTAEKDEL

| Kd (Hsp90α) [µM] | Kd [1] | SMILES |
| --- | --- | --- |
| > 100 | 0.83 ± 0.12 µM | NC(=O)c1ccc(-n2cccc2Cc2ccccc2Cl)cc1N[C@H]1CC[C@H](O)CC1 [Compound 8b, 4-(2-(2-chlorobenzyl)-1H-pyrrol-1-yl)-2-(((1r,4r)-4-hydroxycyclohexyl)amino)benzamide] |
| > 100 | 2.45 ± 0.45 µM | NC(=O)c1ccc(-n2cccc2Cc2cccc(Cl)c2)cc1N[C@H]1CC[C@H](O)CC1 [Compound 8c] |
| > 100 | > 25 µM | NC(=O)c1ccc(-n2cccc2Cc2ccc(Cl)cc2)cc1N[C@H]1CC[C@H](O)CC1 [Compound 8d, 4-(2-(4-chlorobenzyl)-1H-pyrrol-1-yl)-2-(((1r,4r)-4-hydroxycyclohexyl)amino)benzamide] |
| > 100 | 4.53 ± 0.12 µM | NC(=O)c1ccc(-n2cccc2Cc2cccc(F)c2)cc1N[C@H]1CC[C@H](O)CC1 [Compound 8f, 4-(2-(3-fluorobenzyl)-1H-pyrrol-1-yl)-2-(((1r,4r)-4-hydroxycyclohexyl)amino)benzamide] |
| > 100 | 8.35 ± 0.14 µM | NC(=O)c1ccc(-n2cccc2Cc2ccc(F)cc2)cc1N[C@H]1CC[C@H](O)CC1 [Compound 8g, 4-(2-(4-fluorobenzyl)-1H-pyrrol-1-yl)-2-(((1r,4r)-4-hydroxycyclohexyl)amino)benzamide] |
| > 100 | 12.9 ± 0.11 µM | NC(=O)c1ccc(-n2cccc2Cc2ccccc2Br)cc1N[C@H]1CC[C@H](O)CC1 [Compound 8h, 4-(2-(2-bromobenzyl)-1H-pyrrol-1-yl)-2-(((1r,4r)-4-hydroxycyclohexyl)amino)benzamide] |
| > 100 | 4.2 ± 0.23 µM | Cc1ccccc1Cc1cccn1-c1ccc(C(N)=O)c(N[C@H]2CC[C@H](O)CC2)c1 [Compound 8i, 2-(((1r,4r)-4-hydroxycyclohexyl)amino)-4-(2-(2-methylbenzyl)-1H-pyrrol-1-yl)benzamide] |
| > 100 | > 25 µM | NC(=O)c1ccc(-n2cccc2Cc2cccc(O)c2)cc1N[C@H]1CC[C@H](O)CC1 [Compound 8k, 4-(2-(3-hydroxybenzyl)-1H-pyrrol-1-yl)-2-(((1r,4r)-4-hydroxycyclohexyl)amino)benzamide] |
| > 100 | – | NC(=O)c1ccc(-n2cccc2Cc2ccc(O)cc2)cc1N[C@H]1CC[C@H](O)CC1 [Compound 8l, 4-(2-(4-hydroxybenzyl)-1H-pyrrol-1-yl)-2-(((1r,4r)-4-hydroxycyclohexyl)amino)benzamide] |
| > 100 | 1.15 µM | COc1ccccc1Cc1cccn1-c1ccc(C(N)=O)c(N[C@H]2CC[C@H](O)CC2)c1 [Compound 8m, 2-(((1r,4r)-4-hydroxycyclohexyl)amino)-4-(2-(2-methoxybenzyl)-1H-pyrrol-1-yl)benzamide] |
| > 100 | > 25 µM | NC(=O)c1ccc(-n2cccc2Cc2c(F)cccc2F)cc1N[C@H]1CC[C@H](O)CC1 [Compound 8n, 4-(2-(2,6-difluorobenzyl)-1H-pyrrol-1-yl)-2-(((1r,4r)-4hydroxycyclohexyl)amino)benzamide] |
| > 100 | 14 ± 0.27 µM | NC(=O)c1ccc(-n2cccc2Cc2ccccn2)cc1N[C@H]1CC[C@H](O)CC1 [Compound 8o, 2-(((1r,4r)-4-hydroxycyclohexyl)amino)-4-(2-(pyridin-2-ylmethyl)-1H-pyrrol-1-yl)benzamide] |
| > 100 | 5.5 ± 0.15 µM | NC(=O)c1ccc(-n2cccc2Cc2cccnc2)cc1N[C@H]1CC[C@H](O)CC1 [Compound 8p, 2-(((1r,4r)-4-hydroxycyclohexyl)amino)-4-(2-(pyridin-3-ylmethyl)-1H-pyrrol-1-yl) benzamide] |
| > 100 | 13.2 ± 0.12 µM | NC(=O)c1ccc(-n2cccc2Cc2ccncc2)cc1N[C@H]1CC[C@H](O)CC1 [Compound 8q, 2-(((1r,4r)-4-hydroxycyclohexyl)amino)-4-(2-(pyridin-4-ylmethyl)-1H-pyrrol-1-yl)benzamide] |
| > 100 | > 25 µM | NC(=O)c1ccc(-n2cccc2CCc2ccccc2)cc1N[C@H]1CC[C@H](O)CC1 [Compound 9, 2-(((1r,4r)-4-hydroxycyclohexyl)amino)-4-(2-phenethyl-1H-pyrrol-1-yl)benzamide] |

The next lines start with the compound.

| SMILES | Kd (Hsp90α) [µM] | Kd [1] |
| --- | --- | --- |
| NC(=O)c1ccc(-n2cccc2-c2ccccc2)cc1N[C@H]1CC[C@H](O)CC1 [Compound 5a, 2-(((1r,4r)-4-hydroxycyclohexyl)amino)-4-(2-phenyl-1H-pyrrol-1-yl)benzamide] | > 100 | ~9 µM and 9.05 µM |
| Cc1ccccc1-c1cccn1-c1ccc(C(N)=O)c(N[C@H]2CC[C@H](O)CC2)c1 [Compound 5b, 2-(((1r,4r)-4-hydroxycyclohexyl)amino)-4-(2-(o-tolyl)-1H-pyrrol-1-yl)benzamide] | > 100 | 9.9 ± 0.54 µM |
| Cc1cccc(-c2cccn2-c2ccc(C(N)=O)c(N[C@H]3CC[C@H](O)CC3)c2)c1 [Compound 5c, 2-(((1r,4r)-4-hydroxycyclohexyl)amino)-4-(2-(m-tolyl)-1H-pyrrol-1-yl)benzamide] | > 100 | 9.43 ± 0.26 µM |
| Cc1ccc(-c2cccn2-c2ccc(C(N)=O)c(N[C@H]3CC[C@H](O)CC3)c2)cc1 [Compound 5d, 2-(((1r,4r)-4-hydroxycyclohexyl)amino)-4-(2-(p-tolyl)-1H-pyrrol-1-yl)benzamide] | > 100 | 8.35 ± 0.14 µM |
| NC(=O)c1ccc(-n2cccc2-c2ccccc2Cl)cc1N[C@H]1CC[C@H](O)CC1 [Compound 5e, 4-(2-(2-chlorophenyl)-1H-pyrrol-1-yl)-2-(((1r,4r)-4-hydroxycyclohexyl)amino)benzamide] | > 100 | – |
| NC(=O)c1ccc(-n2cccc2-c2cccc(Cl)c2)cc1N[C@H]1CC[C@H](O)CC1 [Compound 5f, 4-(2-(3-chlorophenyl)-1H-pyrrol-1-yl)-2-(((1r,4r)-4-hydroxycyclohexyl)amino)benzamide] | > 100 | – |
| NC(=O)c1ccc(-n2cccc2-c2ccc(Cl)cc2)cc1N[C@H]1CC[C@H](O)CC1 [Compound 5g, 4-(2-(4-chlorophenyl)-1H-pyrrol-1-yl)-2-(((1r,4r)-4-hydroxycyclohexyl)amino)benzamide] | > 100 | 10.6 ± 0.54 µM |
| NC(=O)c1ccc(-n2cccc2-c2ccccn2)cc1N[C@H]1CC[C@H](O)CC1 [Compound 5h, 2-(((1r,4r)-4-hydroxycyclohexyl)amino)-4-(2-(pyridin-2-yl)-1H-pyrrol-1-yl)benzamide] | > 100 | 14 ± 0.27 µM |
| NC(=O)c1ccc(-n2cccc2-c2cccnc2)cc1N[C@H]1CC[C@H](O)CC1 [Compound 5i, 2-(((1r,4r)-4-hydroxycyclohexyl)amino)-4-(2-(pyridin-3-yl)-1H-pyrrol-1-yl)benzamide] | > 100 | 5.5 ± 0.15 µM |
| NC(=O)c1ccc(-n2cccc2-c2ccncc2)cc1N[C@H]1CC[C@H](O)CC1 [Compound 5j, 2-(((1r,4r)-4-hydroxycyclohexyl)amino)-4-(2-(pyridin-4-yl)-1H-pyrrol-1-yl)benzamide] | > 100 | 13.2 ± 0.12 µM |
| NC(=O)c1ccc(-n2cccc2Cc2ccccc2)cc1N[C@H]1CC[C@H](O)CC1 [Compound 8a, 4-(2-benzyl-1H-pyrrol-1-yl)-2-(((1r,4r)-4-hydroxycyclohexyl)amino)benzamide] | > 100 | ~1.3 µM and 1.13 µM |
